Measurements published in patent publication US9254290B2, “Method for screening diabetes treating agent” (GWANGJU INSTITUTE OF SCIENCE AND TECHNOLOGY, priority 2010, dated 2016).

Key:
GLUT 1 = molecular target: T1, GLUT 1 (Homo sapiens, UniProt P11166); details: cited from earlier work
T1 sequence (P11166 1-492): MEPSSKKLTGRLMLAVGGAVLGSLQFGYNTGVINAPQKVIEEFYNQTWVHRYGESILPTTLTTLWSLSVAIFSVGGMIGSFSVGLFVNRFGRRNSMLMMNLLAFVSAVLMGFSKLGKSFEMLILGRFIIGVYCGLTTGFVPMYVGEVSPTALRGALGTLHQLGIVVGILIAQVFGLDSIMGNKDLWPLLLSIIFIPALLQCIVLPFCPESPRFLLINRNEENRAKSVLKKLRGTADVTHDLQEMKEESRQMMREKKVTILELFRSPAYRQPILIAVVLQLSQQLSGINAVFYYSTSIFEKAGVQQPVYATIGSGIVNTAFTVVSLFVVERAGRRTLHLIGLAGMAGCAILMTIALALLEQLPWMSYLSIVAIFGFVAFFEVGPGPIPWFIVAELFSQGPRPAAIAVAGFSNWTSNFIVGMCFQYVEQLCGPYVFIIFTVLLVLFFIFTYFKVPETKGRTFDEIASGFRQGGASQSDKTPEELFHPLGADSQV

3T3-L1 adipocytes = experiment: 6-NBDG uptake screening in 3T3-L1 adipocytes, 96-well, fluorescent microplate reader; format: cell-based, murine; details: 100 nM insulin or 250 μM zinc sulfate; 6-NBDG vs 2-NBDG
Description: 3T3-L1 murine fibroblasts were maintained in proliferation media, consisting of DMEM supplemented with 10% FBS, 50 units/mL penicillin and 50 μg/mL streptomycin. 3T3-L1 fibroblasts were induced to differentiate into adipocytes as follows: 48 h postconfluent cells (designated day 0) were cultured in DMEM supplemented 10% FBS, 0.5 mM 3-isobutyl-1-methyl-xanthine, 2 μg/ml dexamethasone, 1 μg/ml insulin, 50 units/mL penicillin and 50 μg/mL streptomycin for 2 days. Every 2 days thereafter, the cells were incubated with fresh DMEM supplemented with 10% FBS and 1 μg/ml insulin. 3T3-L1 adipocytes were used for experiments 8 days after the induction of differentiation.
Three cell lines were chosen to test if NBDG can be used to detect insulin-stimulated glucose uptake in a 96 well plate culture format, which is more suitable for cell-based screening to identify novel insulin mimetic compounds. The cell lines chosen were Huh7 hepatocytes, C2C12 myoblasts and 3T3-L1 pre-adipocytes, which represent the major body tissue types that are sensitive to the action of insulin (liver, muscle and fat). 10^4 cells/well were seeded in a black, 96 well tissue culture plate (BD Falcon, NJ, USA). C2C12 myoblasts and 3T3-L1 adipocytes were induced to undergo differentiation into myotubes and adipocytes, respectively, to compare the NDBG signal in proliferating and differentiated cells. NBDG uptake was measured following treatment with 10 nM or 100 nM insulin, and 1 μM or 10 μM rosiglitazone (an insulin-sensitizing agent), using a fluorescent microplate reader (SpectraMAX GeminiXS and SoftMax Pro V5 software, Molecular Devices, CA, USA). Cells were cultured in serum-free low glucose culture media for 3 h before the addition of insulin.
To test the NBDG-based screening system, a combinatorial chemical library of 576 triazine-based small molecules was screened at a concentration of 5 μM. The combinatorial library was provided by Professor Young-Tae Chang, Department of Chemistry, National University of Singapore.
To test if this screening protocol could detect new insulin mimetic compounds, a combinatorial chemical library of 576 triazine-based small molecules was screened.

## O=[N+]([O-])c1ccc(NCC2OC(O)C(O)C(O)[C@@H]2O)c2nonc12 (some centres unmarked) [6-NBDG, 6-(N-(7-nitrobenz-2-oxa-1,3-diazol-4-yl)amino)-6-deoxyglucose, reference compound]
GLUT 1
  affinity for GLUT 1 relative to glucose: 300 times
3T3-L1 adipocytes
  fluorescent signal of probe after insulin-stimulated uptake: produced a greater fluorescent signal than 2-NBDG
